Consider one compound from PMC10542788, “Discovery of a cystathionine γ-lyase (CSE) selective inhibitor targeting active-site pyridoxal 5′-phosphate (PLP) via Schiff base formation” (Scientific Reports, 2023).

In one data set the target is T1, hCSE (Homo sapiens, UniProt P32929).
T1 construct: expressed in transfected cells; host or cells: HEK293T
Description: hCSE inhibition in living HEK293T cells expressing hCSE (pretreatment, wash, lysis, HSip-1). Type of data set: cell-based. On the procedure:
(§1) We next examined the suitability of 1 for live-cell experiments. First, we performed CCK-8 assay (Dojindo) to examine its cytotoxicity. COS7 cells were incubated with various concentrations of 1 for 27 h at 37 °C under 5% CO2 and the cell viability was assessed. […] We then examined whether 1 can inhibit the enzymatic activity of hCSE in living cells by employing an indirect approach (Supplementary Fig. S12). HEK293T cells expressing hCSE were incubated with 0–1 mM 1 for 30 min, then washed twice with phosphate-buffered saline (PBS), and lysed in RIPA buffer (50 mM Tris–HCl buffer (pH 7.6), 150 mM NaCl, 1% Nonidet P40 Substitute, 0.5% sodium deoxycholate, protease inhibitor cocktail, 0.1% SDS). The inhibitory activity of 1 was evaluated by fluorescence detection after adding 1.5 mM cysteine, 100 μM PLP and 1 μM HSip-1 to these cell lysates.
Supplementary Figure S12. Experimental protocol for the indirect assessment of the hCSE-inhibitory activity of 1 in living cells. […] L-Cysteine (substrate), PLP and HSip-1 were added to the cell lysate (450 μg/mL cell lysate, 1.5 mM L-cysteine, 100 μM PLP, 1 μM HSip-1 in 30 mM HEPES buffer (pH 7.4) containing 0.005% Tween 20), and the fluorescence was measured with a plate reader (Ex. = 490 nm, Em. = 510 nm).

The subject of another data set is COS7 cells. Kind of data set: CCK-8 cell viability assay. It counts as cell-based. The settings on record: 27 h, 37 °C. On the procedure:
as §1
We performed CCK-8 (Cell Counting Kit-8) assay (Dojindo) to examine cell viability. […] This absorbance is proportional to the number of living cells. […] The absorbance at 450 nm was measured with a microplate reader (EnVision, Perkin Elmer).
Supplementary Figure S11. […] COS7 cells were incubated in DMEM (Dulbecco’s modified Eagle’s medium) containing 1 (1, 3, 10, 30 and 100 µM) for […] and the cell viability was measured using CCK-8 reagent. […]

The target in another data set is rCSE (Rattus norvegicus, UniProt P18757). Kind of data set: rCSE inhibition, cysteine persulfide (sulfane sulfur) production from cystine detected with SSP4. The following applies: cystine as substrate, SSP4 probe, mean ± S.E. Also on record: His-tag (C); made in house; host or cells: E. coli BL21. Type of data set: biochemical. On the procedure: We further examined whether or not 1 can inhibit the production of cysteine persulfide from cystine by CSE (Supplementary Fig. S5)[10], using a commercially available sulfane sulfur-detecting probe, SSP4.
10 µL of 0.5 mM cystine solution in 30 mM HEPES (pH 7.4) was added to 10 µL of solution containing 50 µg/mL rCSE, 100 µM PLP, 1 µM SSP4 (Dojindo), 0.005% tween 20 and various concentrations of the inhibitor (0.5% DMSO as a cosolvent). The mixture was incubated at 37 °C for 60 min and the fluorescence intensity of SSP4 was measured with a microplate reader.

T1 sequence (P32929 whole entry): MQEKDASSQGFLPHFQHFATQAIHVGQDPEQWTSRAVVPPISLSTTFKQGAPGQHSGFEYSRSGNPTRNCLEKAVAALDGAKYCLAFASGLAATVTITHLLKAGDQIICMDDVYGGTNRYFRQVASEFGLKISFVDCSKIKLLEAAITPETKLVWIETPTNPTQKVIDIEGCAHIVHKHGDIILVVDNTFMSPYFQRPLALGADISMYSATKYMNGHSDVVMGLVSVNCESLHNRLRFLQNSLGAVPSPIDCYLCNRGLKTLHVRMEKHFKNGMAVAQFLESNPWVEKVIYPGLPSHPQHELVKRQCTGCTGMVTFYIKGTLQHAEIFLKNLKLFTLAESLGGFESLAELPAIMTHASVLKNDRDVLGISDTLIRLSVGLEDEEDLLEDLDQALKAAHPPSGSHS
rCSE, sequence (P18757 whole entry): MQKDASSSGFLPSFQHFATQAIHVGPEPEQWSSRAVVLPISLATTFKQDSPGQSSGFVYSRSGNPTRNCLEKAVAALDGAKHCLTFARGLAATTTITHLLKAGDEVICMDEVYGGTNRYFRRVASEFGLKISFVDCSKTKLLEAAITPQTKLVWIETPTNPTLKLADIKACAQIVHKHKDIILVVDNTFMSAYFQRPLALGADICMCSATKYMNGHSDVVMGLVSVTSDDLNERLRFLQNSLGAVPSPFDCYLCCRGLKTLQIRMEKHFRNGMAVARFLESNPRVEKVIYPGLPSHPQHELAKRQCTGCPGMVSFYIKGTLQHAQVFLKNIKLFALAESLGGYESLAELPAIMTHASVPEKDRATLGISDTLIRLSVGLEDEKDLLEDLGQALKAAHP

For `NNC(=O)C(N)=O` [Compound 1, oxamic hydrazide], the IC50 at hCSE (HEK293T cells expressing hCSE incubated 30 min with 1, washed, lysed, mean ± S.E., read-out: IC50, inhibitory activity towards hCSE in living cells) is 170 ± 33 µM; against rCSE, 33 ± 3 µM. On hCSE (concluded from inhibition of hCSE in living cells), the cell-membrane permeability entry is listed as “sufficiently cell-membrane permeable”. Further, the “cytotoxicity (cell viability)” value with COS7 cells is “No cytotoxicity was observed below 100 µM”.
